{"source": "patent US5508387A", "about": "“Selectin binding glycopeptides” (Glycomed Incorporated, priority 1993, dated 1996)", "key": {"L-selectin": {"system": "L-selectin", "experiment": "ELISA assay: inhibition of L-selectin-IgG chimera binding to 2,3 sLex glycolipid", "details": "FIG. 4; tested at several concentrations; results expressed as percent of control binding", "procedure": "(§1) An ELISA assay (Foxall et al, The Journal of Cell Biology (1992) 117:895) is preferably used which consists of the following three steps:\n(§2) 1. 2,3 sLex glycolipid is transferred into microtitre wells as solutions and then evaporated off. Excess, which remained unattached, is washed off with water. The wells are then blocked with a blocking agent, preferably BSA.\n(§3) 2. Preparation of \"multivalent\" receptor of the Selectin-IgG chimera is carried out by combining the respective chimera with biotin labelled goat F(ab')2 anti-human IgG (Fc specific) and streptavidin-alkaline phosphatase diluted appropriately and incubated. This allows the soluble multivalent receptor complex to form.\n(§4) 3. Potential inhibitors such as glyco-amino acids or glycopeptides of structural formula I are allowed to react with the soluble receptor. This solution is then placed in the microtitre wells that are prepared in step 1. The plate is incubated to allow the soluble receptor to bind to its natural ligand. In the presence of a strong inhibitor only a few of the receptors should be free to bind to the microtitre plate coated with the natural ligand.\n(§5) The positive control is the signal produced by the soluble receptor when it is allowed to react with the natural ligand in the microtitre wells in the absence of any inhibitor. This is considered 100% binding. The signal produced by the receptor that is previously treated with an inhibitor (recorded as O.D.), is divided by the signal produced by the positive control and multiplied by 100 to calculate the % receptor bound to the well in the presence of the inhibitor. The reciprocal of this is the % inhibition.\n(§6) The glyco-amino acids or glycopeptides of structural formula I can be tested for their ability to bind to a selectin receptor and/or block the binding site of the receptor and thereby prevent a natural ligand from binding to the selectin receptor (Foxall et al, The Journal of Cell Biology (1992) 117:895). A generalized procedure for testing the ligands is given below.\n(§7) An ELISA assay is preferably used which consisted of the following three steps:\n1. 2,3 sLex glycolipid (25 picomol/well) was transferred into microtitre wells as solutions and evaporated off. Excess, which remained unattached, was washed off with water. The wells were blocked with 5% BSA at room temperature for an hour and washed with PBS containing 1 mM calcium.\n2. Preparation of \"multivalent\" receptor of the Selectin-IgG chimera was carried out by combining the respective chimera (1 μg/mL) with biotin labelled goat F(ab')2 anti-human IgG (Fc specific) and streptavidin-alkaline phosphatase diluted 1:1000 in 1% BSA-PBS (1 mM calcium) and incubating at 37° C. for 15 min. This allowed the soluble multivalent receptor complex to form.\n3. Potential inhibitors such as glyco-amino acids or glycopeptides of structural formula I were allowed to react with the soluble receptor at 37° C. for 45 min. This test assumes that optimal binding, between the soluble phase receptor complex and the inhibitor (non-natural ligand), would occur within this time frame. This solution was placed in the microtitre wells that were prepared in step 1. The plate was incubated at 37° C. for 45 minutes to allow the soluble receptor to bind to its natural ligand. In the presence of a strong inhibitor only a few receptors would be free to bind to the microtitre plate coated with the natural ligand.\nas §5, with “control was” for “control is”, “it was” for “it is”, “This was” for “This is”, “that was” for “that is”, “O.D.), was” for “O.D.), is”"}, "P-selectin [1]": {"system": "P-selectin", "experiment": "ELISA assay: inhibition of P-selectin-IgG chimera binding to 2,3 sLex glycolipid", "details": "FIG. 5; tested at several concentrations; results expressed as percent of control binding", "procedure": "as §1, §2, §3, §4, §5, §6, §7\n1. 2,3 sLex glycolipid (25 picomol/well) was transferred into microtitre wells as solutions and evaporated off. Excess, which remained unattached, was washed off with water. […]\nas §5, with “was” for “is”, “This is considered 100% binding.” left out, “The reciprocal of this is the % inhibition.” left out"}, "P-selectin [2]": {"system": "P-selectin", "experiment": "P-selectin/HL-60 assay", "format": "cell-based", "details": "FIG. 6; HL-60 cells; tested at several concentrations", "text": "The glyco-amino acids or glycopeptides of structural formula I can be tested for their ability to inhibit P-selectin binding to its native ligand. A generalized procedure for testing the ligands is given below. A P-selectin/HL-60 assay is preferably used which consists of the following steps:\n1. HL-60 cells are harvested and pelleted by centrifugation. The cells are washed, counted and the volume adjusted appropriately.\n2. PVC microtiter plate is blocked with a blocking agent, and washed with TBS-BSA.\n3. P-selectin is diluted appropriately in BSA-TBS Ca containing goat F(ab')2 anti-human IgG (Fc spec) and streptavidin-alkaline phosphatase. Positive controls have DMF added to equal the highest concentration of DMF in the sample compounds.\n4. Ligands are incubated at room temperature with brisk rotation. […]\nPara-nitrophenylphosphonate is added to the plate. […] Aliqouts from each well is transferred to a polystyrene microtiter plate and O.D. read at 405 nm. […] The signal produced by the receptor that is previously treated with an inhibitor (recorded as O.D.), is divided by the signal produced by the positive control and multiplied by 100 to calculate the % receptor bound to the well in the presence of the inhibitor. […]\n1. […] The cells were washed three times with TBS without Ca, counted and the volume adjusted to 1.9×10^6 /ml in 1% BSA-TBS Ca just prior to use. […]"}, "[3]": {"system": "lymphocyte binding to high endothelial venules (HEV), L-selectin mediated", "experiment": "Stamper-Woodruff assay (lymphocyte adhesion to HEV of lymph node frozen sections)", "format": "cell-based, female Swiss Webster mice; female Sprague-Dawley rats", "details": "FIG. 7, percent of relative binding", "text": "(§8) Lymphocytes are known to circulate from blood to lymphoid tissues via high endothelial venules (HEV) on lymph nodes. L-selectin is expressed on the surface of lymphocytes and is believed to mediate lymphocyte adhesion by binding to the natural ligand on the HEV. The glyco-amino acids or glycopeptides of structural formula I can be tested for their ability to bind to a selectin receptor and/or block the binding site of the receptor and thereby prevent a natural ligand from binding to the selectin receptor. See, for example, Stoolman et al, The Journal of Cell Biology (1983) 96:722. The Stamper-Woodruff assay is well known in the an, and generally consists of the following three steps:\n1. Preparation of the lymphocytes:\n(a) The lymphocytes are obtained from the mesenteric nodes of female Swiss Webster mice, by gently teasing tissues with phosphate buffered saline (PBS). The cells are obtained by gently squeezing the cells from the tissues. The cells are dispersed and the cell clumps are removed. The single cell suspension is suspended, washed, and kept on ice until use (less than two hours). Cells are counted and prepared at an appropriate concentration.\n(b) The superficial and deep cervical lymph nodes of female Sprague-Dawley rats are dissected and prepared in the same way as the mice.\n2. Preparation of frozen sections:\nSuperficial or deep cervical lymph nodes are dissected from the animals, snap frozen, and immediately placed in a cryostat for sectioning. 10-μm sections are prepared and transferred onto glass slides, and air dried.\n3. Potential inhibitors are added to lymphocyte suspensions 10-30 minutes before the start of the binding assay, and unless otherwise stated, are present throughout the subsequent binding incubation.\nThe frozen sections are used in the order in which they are cut. Aliquots of untreated lymphocytes (positive control), suspensions containing fucoidin (negative control) and suspensions containing potential inhibitors are layered on the sections in an arbitrary sequence such that the control and each test substance are represented once in a series.\nThe binding of the lymphocytes to the HEV is easily distinguishable from binding elsewhere by virtue of the characteristic picture of tightly packed, darkly stained lymphocytes overlaying the histologically distinctive HEV. The number of adherent lymphocytes on each HEV are counted and the average number of adherent cells per HEV (cells bound per HEV) is calculated. The results are expressed as a percent of relative binding, wherein the positive control is considered to be 100% binding.\nas §8, with “were” for “can be”, “art,” for “an,”\n(a) The lymphocytes were obtained from the mesenteric nodes of female Swiss Webster mice (23-27 g), by gently teasing tissues by phosphate buffered saline (PBS). […] Cells were counted and prepared at 3-4×10^7 cells/ml. […]"}}, "data": [{"compound": "C[C@@H]1O[C@@H](CC(=O)N2CCC[C@H]2C(=O)N[C@@H](Cc2ccccc2)C(=O)O)[C@@H](O)[C@H](O)[C@@H]1O", "note": "[#1, N-[(1-deoxy-α-L-fucopyranosyl)acetyl]-L-proline-L-phenylalanine]", "values": [{"measurement": "inhibition of the binding of sLe^x to L-selectin", "setting": "L-selectin", "value": "inhibit the binding of sLe^x to L-selectin"}, {"measurement": "inhibition of the binding of sLe^x to P-selectin", "setting": "P-selectin [1]", "value": "inhibit the binding of sLe^x to P-selectin"}, {"measurement": "inhibition of the binding of sLe^x to P-selectin in the HL-60 assay", "setting": "P-selectin [2]", "value": "inhibit the binding of sLe^x to P-selectin"}, {"measurement": "inhibitory effects in the Stamper-Woodruff assay (cell adhesion)", "setting": "[3]", "value": "inhibitory effects"}]}, {"compound": "C[C@@H]1O[C@@H](CC(=O)N2CCC[C@H]2C(=O)N[C@H](C(=O)O)c2ccccc2)[C@@H](O)[C@H](O)[C@@H]1O", "note": "[#5, N-[(1-deoxy-α-L-fucopyranosyl)acetyl]-L-proline-L-phenylglycine]", "values": [{"measurement": "inhibition of the binding of sLe^x to L-selectin", "setting": "L-selectin", "value": "inhibit the binding of sLe^x to L-selectin"}, {"measurement": "inhibition of the binding of sLe^x to P-selectin", "setting": "P-selectin [1]", "value": "inhibit the binding of sLe^x to P-selectin"}, {"measurement": "inhibitory effects in the Stamper-Woodruff assay (cell adhesion)", "setting": "[3]", "value": "inhibitory effects"}]}, {"compound": "C[C@H](NC(=O)C[C@@H]1O[C@@H](C)[C@@H](O)[C@@H](O)[C@@H]1O)C(=O)N1CCC[C@H]1C(=O)N[C@@H](Cc1ccccc1)C(=O)O", "note": "[#2, N-[(1-deoxy-α-L-fucopyranosyl)acetyl]-L-alanine-L-proline-L-phenylalanine]", "values": [{"measurement": "inhibition of the binding of sLe^x to L-selectin", "setting": "L-selectin", "value": "inhibit the binding of sLe^x to L-selectin"}, {"measurement": "inhibition of the binding of sLe^x to P-selectin in the HL-60 assay", "setting": "P-selectin [2]", "value": "inhibit the binding of sLe^x to P-selectin"}, {"measurement": "inhibitory effects in the Stamper-Woodruff assay (cell adhesion)", "setting": "[3]", "value": "inhibitory effects"}]}, {"compound": "CC1OC(CCCC(=O)NC(Cc2ccccc2)C(=O)O)C(O)C(O)C1O", "note": "[#6, N-[4-(1-deoxy-α-L-fucopyranosyl)n-butanoyl]-L-phenylalanine]", "values": [{"measurement": "inhibition of the binding of sLe^x to L-selectin", "setting": "L-selectin", "value": "inhibit the binding of sLe^x to L-selectin"}]}, {"compound": "C[C@@H]1O[C@@H](CCCC(=O)N2CCC[C@H]2C(=O)N[C@@H](Cc2ccccc2)C(=O)O)[C@@H](O)[C@H](O)[C@@H]1O", "note": "[#4, N-[4-(1-deoxy-α-L-fucopyranosyl)n-butanoyl]-L-proline-L-phenylalanine]", "values": [{"measurement": "inhibition of the binding of sLe^x to L-selectin", "setting": "L-selectin", "value": "inhibit the binding of sLe^x to L-selectin"}, {"measurement": "inhibition of the binding of sLe^x to P-selectin", "setting": "P-selectin [1]", "value": "inhibit the binding of sLe^x to P-selectin"}, {"measurement": "inhibitory effects in the Stamper-Woodruff assay (cell adhesion)", "setting": "[3]", "value": "inhibitory effects"}]}, {"compound": "C[C@@H]1O[C@@H](CC(=O)N[C@@H](CCCCNC(=O)OC(C)(C)C)C(=O)O)[C@@H](O)[C@H](O)[C@@H]1O", "note": "[#3, N-ω-t-butoxylcarbonyl-N-α-[(1-deoxy-α-L-fucopyranosyl)acetyl]-L-lysine]", "values": [{"measurement": "inhibition of the binding of sLe^x to L-selectin", "setting": "L-selectin", "value": "inhibit the binding of sLe^x to L-selectin"}, {"measurement": "inhibition of the binding of sLe^x to P-selectin", "setting": "P-selectin [1]", "value": "inhibit the binding of sLe^x to P-selectin"}, {"measurement": "inhibitory effects in the Stamper-Woodruff assay (cell adhesion)", "setting": "[3]", "value": "inhibitory effects"}]}]}
